Laboratory results as given in US20090036448A1, “PYRIMIDINE DERIVATIVES AND METHODS OF TREATMENT RELATED TO THE USE THEREOF” (TAISHO PHARMECUTICAL CO., LTD., priority 2004, published 2009).

These molecules were tested against MCH receptor (Homo sapiens, UniProt Q99705) (assay: Receptor binding assay with Radiolabelled MCH Ligand). Conditions: class by percent of control at 10^-7 M or IC50.
Parameters: expressed in transfected cells; host or cells: 293 cells (human kidney, ATCC), transient transfection; crude membranes
Text: In addition to the methods described herein, another means for evaluating a test compound is by determining binding affinities to the MCH receptor. This type of assay generally requires a radiolabelled ligand to the MCH receptor. Absent the use of known ligands for the MCH receptor and radiolabels thereof, compounds of Formula (I) can be labelled with a radioisotope and used in an assay for evaluating the affinity of a test compound to the MCH receptor.
A radiolabelled MCH compound of Formula (I) can be used in a screening assay to identify/evaluate compounds. In general terms, a newly synthesized or identified compound (i.e., test compound) can be evaluated for its ability to reduce binding of the “radiolabelled compound of Formula (I)” to the MCH receptor. Accordingly, the ability to compete with the “radio-labelled compound of Formula (I)” or Radiolabelled MCH Ligand for the binding to the MCH receptor directly correlates to its binding affinity of the test compound to the MCH receptor.
293 cells (human kidney, ATCC), transiently transfected with 10 μg human MCH receptor and 60 μl Lipofectamine (per 15-cm dish), are grown in the dish for 24 hours (75% confluency) with a media change and removed with 10 mL/dish of Hepes-EDTA buffer (20 mM Hepes+10 mM EDTA, pH 7.4). The cells are then centrifuged in a Beckman Coulter centrifuge for 20 minutes, 17,000 rpm (JA-25.50 rotor). Subsequently, the pellet is resuspended in 20 mM Hepes+1 mM EDTA, pH 7.4 and homogenized with a 50-mL Dounce homogenizer and again centrifuged. After removing the supernatant, the pellets can be stored at −80° C., until used in binding assay. When used in the assay, membranes are thawed on ice for 20 minutes and then 10 mL of incubation buffer (20 mM Hepes, 1 mM MgCl2, 100 mM NaCl, pH 7.4) added. The membranes are then vortexed to resuspend the crude membrane pellet and homogenized with a Brinkmann PT-3100 Polytron homogenizer for 15 seconds at setting 6. The concentration of membrane protein is determined using the BRL Bradford protein assay.
For total binding, a total volume of 50 ul of appropriately diluted membranes (diluted in assay buffer containing 50 mM Tris HCl (pH 7.4), 1 mM MgCl2, and 1 mM EDTA; 5-50 ug protein) is added to 96-well polyproylene microtiter plates followed by addition of 100 μl of assay buffer and 50 μl of Radiolabelled MCH Ligand. For nonspecific binding, 50 μl of assay buffer is added instead of 100 μl and an additional 50 μl of 10 uM cold MCH is added before 50 μl of Radiolabelled MCH Ligand is added. Plates are then incubated at room temperature for 60-120 minutes. The binding reaction is terminated by filtering assay plates through a Microplate Devices GF/C Unifilter filtration plate with a Brandell 96-well plate harvester followed by washing with cold 50 mM Tris HCl, pH 7.4 containing 0.9% NaCl. Then, the bottom of the filtration plate are sealed, 50 ul of Optiphase Supermix is added to each well, the top of the plates are sealed, and plates are counted in a Trilux MicroBeta scintillation counter. For compound competition studies, instead of adding 100 μl of assay buffer, 100 μl of appropriately diluted test compound is added to appropriate wells followed by addition of 50 μl of Radiolabelled MCH Ligand.
The test compounds are initially assayed at 1 and 0.1 μM and then at a range of concentrations chosen such that the middle dose would cause about 50% inhibition of a Radiolabelled MCH Ligand binding (i.e., IC50). Specific binding in the absence of test compound (BO) is the difference of total binding (BT) minus non-specific binding (NSB) and similarly specific binding (in the presence of test compound) (B) is the difference of displacement binding (BD) minus non-specific binding (NSB). IC50 is determined from an inhibition response curve, logit-log plot of % B/BO vs. concentration of test compound.
Ki is calculated by the Cheng and Prustoff transformation: […]

MCH receptor, sequence (Q99705 whole entry): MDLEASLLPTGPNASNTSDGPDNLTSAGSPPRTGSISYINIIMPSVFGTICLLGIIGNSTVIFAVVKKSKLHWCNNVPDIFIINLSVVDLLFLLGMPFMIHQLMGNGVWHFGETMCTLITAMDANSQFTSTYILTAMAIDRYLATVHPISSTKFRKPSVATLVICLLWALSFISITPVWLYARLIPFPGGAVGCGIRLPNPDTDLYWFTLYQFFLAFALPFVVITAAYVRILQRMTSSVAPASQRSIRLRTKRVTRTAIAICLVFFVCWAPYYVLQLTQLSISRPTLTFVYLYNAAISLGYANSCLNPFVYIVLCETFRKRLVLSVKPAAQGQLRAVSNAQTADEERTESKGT

Compound | class
COc1ccc(Oc2ccc([N+](=O)[O-])cc2C(=O)N[C@H]2CC[C@@H](Nc3cc(N(C)C)nc(C)n3)CC2)cc1 [compound 230, N-(cis-4-{[6-(dimethylamino)-2-methylpyrimidin-4-yl]amino}cyclohexyl)-2-(4-methoxyphenoxy)-5-nitrobenzamide] | 2 (Class 2: The value of percent of control at 10^−7 M was from 40% to 60% or the value of IC50 was from 50 nM to 200 nM.)
Cc1nc(N[C@H]2CC[C@@H](NCCOCc3ccccc3)CC2)cc(N(C)C)n1 [compound 359] | 3 (Class 3: The value of percent of control at 10^−7 M was more than 60% or the value of IC50 was more than 200 nM.)
Cc1nc(N[C@H]2CC[C@@H](NS(=O)(=O)c3sc4ccc(Cl)cc4c3C)CC2)cc(N(C)C)n1 [compound 511] | 3 (Class 3: The value of percent of control at 10^−7 M was more than 60% or the value of IC50 was more than 200 nM.)
Cc1nc(N[C@H]2CC[C@@H](NC(=O)c3ccc(S(C)(=O)=O)cc3)CC2)cc(N(C)C)n1 [compound 343] | 3 (Class 3: The value of percent of control at 10^−7 M was more than 60% or the value of IC50 was more than 200 nM.)
Cc1nc(N[C@H]2CC[C@@H](NC(=S)Nc3c(Br)cc(Br)cc3Br)CC2)cc(N(C)C)n1 [compound 447, N-(cis-4-{[6-(dimethylamino)-2-methylpyrimidin-4-yl]amino}cyclohexyl)-N′-(2,4,6-tribromophenyl)thiourea] | 1 (Class 1: The value of percent of control at 10^−7 M was less than 40% or the value of IC50 was less than 50 nM.)
CCCCCCCCCc1ccc(CN[C@H]2CC[C@@H](Nc3cc(N(C)C)nc(C)n3)CC2)cc1 [compound 399] | 3 (Class 3: The value of percent of control at 10^−7 M was more than 60% or the value of IC50 was more than 200 nM.)
Cc1nc(N[C@H]2CC[C@@H](NCc3ccco3)CC2)cc(N(C)C)n1 [compound 373] | 3 (Class 3: The value of percent of control at 10^−7 M was more than 60% or the value of IC50 was more than 200 nM.)
COc1ccc(CCCC(=O)N[C@H]2CC[C@@H](Nc3cc(N(C)C)nc(C)n3)CC2)cc1OC [compound 340] | 3 (Class 3: The value of percent of control at 10^−7 M was more than 60% or the value of IC50 was more than 200 nM.)
COC(=O)c1ccc(C(=O)N[C@H]2CC[C@@H](Nc3cc(N(C)C)nc(C)n3)CC2)cc1 [compound 227] | 3 (Class 3: The value of percent of control at 10^−7 M was more than 60% or the value of IC50 was more than 200 nM.)
COc1cc(NC(=S)N[C@H]2CC[C@@H](Nc3cc(N(C)C)nc(C)n3)CC2)cc(OC)c1OC [compound 442, N-(cis-4-{[6-(dimethylamino)-2-methylpyrimidin-4-yl]amino}cyclohexyl)-N′-(3,4,5-trimethoxyphenyl)thiourea] | 1 (Class 1: The value of percent of control at 10^−7 M was less than 40% or the value of IC50 was less than 50 nM.)
COC(=O)c1scc(C)c1NC(=S)N[C@H]1CC[C@@H](Nc2cc(N(C)C)nc(C)n2)CC1 [compound 451] | 3 (Class 3: The value of percent of control at 10^−7 M was more than 60% or the value of IC50 was more than 200 nM.)
Cc1nc(N[C@H]2CC[C@@H](NC(=O)Nc3c(C)noc3-c3ccccc3)CC2)cc(N(C)C)n1 [compound 433] | 3 (Class 3: The value of percent of control at 10^−7 M was more than 60% or the value of IC50 was more than 200 nM.)
Cc1nc(N[C@H]2CC[C@@H](NC(=O)C3CC3)CC2)cc(N(C)C)n1 [compound 211] | 3 (Class 3: The value of percent of control at 10^−7 M was more than 60% or the value of IC50 was more than 200 nM.)
Cc1nc(N[C@H]2CC[C@@H](NC(=O)CC(C)S(=O)(=O)c3ccc(Cl)cc3)CC2)cc(N(C)C)n1 (relative stereo) [compound 281] | 3 (Class 3: The value of percent of control at 10^−7 M was more than 60% or the value of IC50 was more than 200 nM.)
Cc1nc(N[C@H]2CC[C@@H](NS(=O)(=O)c3ccc(-c4ccon4)s3)CC2)cc(N(C)C)n1 [compound 517] | 3 (Class 3: The value of percent of control at 10^−7 M was more than 60% or the value of IC50 was more than 200 nM.)
Cc1nc(N[C@H]2CC[C@@H](NC(=O)Cc3ccc(Cl)cc3)CC2)cc(N(C)C)n1 [compound 213] | 3 (Class 3: The value of percent of control at 10^−7 M was more than 60% or the value of IC50 was more than 200 nM.)
Cc1nc(N[C@H]2CC[C@@H](NS(=O)(=O)Cc3ccc(F)cc3)CC2)cc(N(C)C)n1 [compound 474, N-(cis-4-{[6-(dimethylamino)-2-methylpyrimidim-4-yl]amino}cyclohexyl)-1-(4-fluorophenyl)methanesulfonamide] | 3 (Class 3: The value of percent of control at 10^−7 M was more than 60% or the value of IC50 was more than 200 nM.)
Cc1nc(N[C@H]2CC[C@@H](NCc3ccc(F)cc3)CC2)cc(N(C)C)n1 [compound 372] | 3 (Class 3: The value of percent of control at 10^−7 M was more than 60% or the value of IC50 was more than 200 nM.)
Cc1nc(N[C@H]2CC[C@@H](NC(=O)c3ccccc3C(=O)c3ccc(F)cc3)CC2)cc(N(C)C)n1 [compound 304] | 3 (Class 3: The value of percent of control at 10^−7 M was more than 60% or the value of IC50 was more than 200 nM.)
Cc1ccc(OC(=O)N[C@H]2CC[C@@H](Nc3cc(N(C)C)nc(C)n3)CC2)cc1 [compound 466] | 3 (Class 3: The value of percent of control at 10^−7 M was more than 60% or the value of IC50 was more than 200 nM.)
Cc1nc(N[C@H]2CC[C@@H](NCCC3CCCC3)CC2)cc(N(C)C)n1 [compound 402] | 3 (Class 3: The value of percent of control at 10^−7 M was more than 60% or the value of IC50 was more than 200 nM.)
Cc1nc(N[C@H]2CC[C@@H](NS(=O)(=O)C(C)C)CC2)cc(N(C)C)n1 [compound 479] | 3 (Class 3: The value of percent of control at 10^−7 M was more than 60% or the value of IC50 was more than 200 nM.)
Cc1nc(N[C@H]2CC[C@@H](NC(=O)OC3C[C@H](C)CC[C@H]3C(C)C)CC2)cc(N(C)C)n1 (some centres unmarked) [compound 465] | 3 (Class 3: The value of percent of control at 10^−7 M was more than 60% or the value of IC50 was more than 200 nM.)
Cc1ccc(CN[C@H]2CC[C@@H](Nc3cc(N(C)C)nc(C)n3)CC2)cc1 [compound 387] | 3 (Class 3: The value of percent of control at 10^−7 M was more than 60% or the value of IC50 was more than 200 nM.)
Cc1nc(N[C@H]2CC[C@@H](NCc3cnn(C)c3Cl)CC2)cc(N(C)C)n1 [compound 410] | 3 (Class 3: The value of percent of control at 10^−7 M was more than 60% or the value of IC50 was more than 200 nM.)
Cc1nc(N[C@H]2CC[C@@H](NCc3ccc(Br)cc3)CC2)cc(N(C)C)n1 [compound 358] | 3 (Class 3: The value of percent of control at 10^−7 M was more than 60% or the value of IC50 was more than 200 nM.)
CSc1sc(C(=O)N[C@H]2CC[C@@H](Nc3cc(N(C)C)nc(C)n3)CC2)c(Cl)c1S(=O)(=O)C(C)C [compound 345] | 3 (Class 3: The value of percent of control at 10^−7 M was more than 60% or the value of IC50 was more than 200 nM.)
CC(=O)c1ccc(C(=O)N[C@H]2CC[C@@H](Nc3cc(N(C)C)nc(C)n3)CC2)s1 [compound 344] | 3 (Class 3: The value of percent of control at 10^−7 M was more than 60% or the value of IC50 was more than 200 nM.)
Cc1nc(N[C@H]2CC[C@@H](NC(=O)Cc3ccccc3C(=O)Nc3ccc(C(C)C)cc3)CC2)cc(N(C)C)n1 [compound 296] | 3 (Class 3: The value of percent of control at 10^−7 M was more than 60% or the value of IC50 was more than 200 nM.)
